The values that follow are results of earlier work, collected in patent US20200338057A1, “Methods of Treating Prostate Cancer Based on Molecular Subtypes” (Janssen Pharmaceutica NV, priority 2019, published 2020).

For series [1], the system named is noncastrate hormone-sensitive and bicalutamide-resistant human prostate cancer xenograft models. Particulars: noncastrate hormone-sensitive and bicalutamide-resistant human prostate cancer xenografts. In general terms: A xenograft is tissue or cells of one species grown in another, often human tumour cells in immunodeficient mice.

Take `CNC(=O)c1ccc(N2C(=S)N(c3cnc(C#N)c(C(F)(F)F)c3)C(=O)C23CCC3)cc1F` [Apalutamide, 4-[7-(6-cyano-5-trifluoromethylpyridin-3-yl)-8-oxo-6-thioxo-5,7-diazaspiro[3.4]oct-5-yl]-2-fluoro-N-methylbenzamide]: the “Tumor response in xenograft models” value in series [1] is given as “partial or complete tumor regression”. Turning to `CC(O)c1cc(C(=O)N[C@@H](C)Cn2ccc(-c3ccc(C#N)c(Cl)c3)n2)[nH]n1` (some centres unmarked) [Darolutamide, darolutamide], the AR binding affinity result in the series on AR is “high affinity”.
